Columns and labels:
Type in all cases: cell-based
human TLR7 = biological target: T1, human TLR7 (Homo sapiens, UniProt Q9NYK1); experiment: TLR7 inhibition reporter assay (HEK-Blue SEAP); conditions: HEK-Blue cells overexpressing human TLR7, stimulated with gardiquimod 7.5 μM, 22 hour incubation
T1 construct: host or cells: HEK-Blue cells
T1 sequence (Q9NYK1 27-1049): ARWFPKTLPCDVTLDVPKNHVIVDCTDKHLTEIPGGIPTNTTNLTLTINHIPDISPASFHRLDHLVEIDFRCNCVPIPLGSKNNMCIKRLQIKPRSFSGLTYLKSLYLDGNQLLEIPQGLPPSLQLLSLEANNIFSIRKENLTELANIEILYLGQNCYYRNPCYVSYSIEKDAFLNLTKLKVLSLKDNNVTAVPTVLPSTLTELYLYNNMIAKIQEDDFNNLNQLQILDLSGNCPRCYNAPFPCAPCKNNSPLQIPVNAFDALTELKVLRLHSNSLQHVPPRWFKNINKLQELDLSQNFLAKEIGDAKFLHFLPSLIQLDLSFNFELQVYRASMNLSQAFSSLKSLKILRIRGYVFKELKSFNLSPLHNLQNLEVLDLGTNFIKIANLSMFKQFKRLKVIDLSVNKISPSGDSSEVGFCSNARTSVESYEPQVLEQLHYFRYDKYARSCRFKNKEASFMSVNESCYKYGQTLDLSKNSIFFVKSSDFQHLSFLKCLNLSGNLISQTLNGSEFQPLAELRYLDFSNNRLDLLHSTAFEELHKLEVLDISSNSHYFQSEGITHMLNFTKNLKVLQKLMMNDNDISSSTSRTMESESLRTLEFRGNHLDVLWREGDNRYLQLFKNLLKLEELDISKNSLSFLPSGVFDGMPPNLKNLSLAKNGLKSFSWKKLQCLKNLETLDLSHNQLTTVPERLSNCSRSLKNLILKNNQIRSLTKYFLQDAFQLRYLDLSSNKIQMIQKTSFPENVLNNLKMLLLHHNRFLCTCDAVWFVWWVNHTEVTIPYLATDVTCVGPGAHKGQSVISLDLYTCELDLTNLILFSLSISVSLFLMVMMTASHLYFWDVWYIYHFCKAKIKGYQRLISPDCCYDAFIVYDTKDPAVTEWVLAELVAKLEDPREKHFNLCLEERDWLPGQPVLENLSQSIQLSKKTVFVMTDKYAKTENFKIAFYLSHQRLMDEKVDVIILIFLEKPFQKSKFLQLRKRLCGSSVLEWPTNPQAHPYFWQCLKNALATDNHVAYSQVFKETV
Procedure: (§1) TLR7/8/9 Inhibition Reporter Assays
(§2) HEK-Blue™-cells (Invivogen) overexpressing human TLR7, TLR8 or TLR9 receptors were used for screening inhibitors of these receptors using an inducible SEAP (secreted embryonic alkaline phosphatase) reporter gene under the control of the IFN-β minimal promoter fused to five NF-κB and AP-1-binding sites. Briefly, cells are seeded into Greiner 384 well plates (15000 cells per well for TLR7, 20,000 for TLR8 and 25,000 for TLR9) and then treated with test compounds in DMSO to yield a final dose response concentration range of 0.05 nM to 50 μM. After a 30 minute compound pre-treatment at room temperature, the cells are then stimulated with a TLR7 ligand (gardiquimod at a final concentration of 7.5 μM), TLR8 ligand (R848 at a final concentration of 15.9 μM) or TLR9 ligand (ODN2006 at a final concentration of 5 nM) to activate NF-κB and AP-1 which induce the production of SEAP. After a 22 hour incubation at 37° C., 5% CO2, SEAP levels are determined with the addition of HEK-Blue™ Detection reagent (Invivogen), a cell culture medium that allows for detection of SEAP, according to manufacturer's specifications. The percent inhibition is determined as the % reduction in the HEK-Blue signal present in wells treated with agonist plus DMSO alone compared to wells treated with a known inhibitor.

human TLR8 = biological target: T2, human TLR8 (Homo sapiens, UniProt Q9NR97); experiment: TLR8 inhibition reporter assay (HEK-Blue SEAP); conditions: HEK-Blue cells overexpressing human TLR8, stimulated with R848 15.9 μM, 22 hour incubation
T2 construct: host or cells: HEK-Blue cells
T2 sequence (Q9NR97 27-1041): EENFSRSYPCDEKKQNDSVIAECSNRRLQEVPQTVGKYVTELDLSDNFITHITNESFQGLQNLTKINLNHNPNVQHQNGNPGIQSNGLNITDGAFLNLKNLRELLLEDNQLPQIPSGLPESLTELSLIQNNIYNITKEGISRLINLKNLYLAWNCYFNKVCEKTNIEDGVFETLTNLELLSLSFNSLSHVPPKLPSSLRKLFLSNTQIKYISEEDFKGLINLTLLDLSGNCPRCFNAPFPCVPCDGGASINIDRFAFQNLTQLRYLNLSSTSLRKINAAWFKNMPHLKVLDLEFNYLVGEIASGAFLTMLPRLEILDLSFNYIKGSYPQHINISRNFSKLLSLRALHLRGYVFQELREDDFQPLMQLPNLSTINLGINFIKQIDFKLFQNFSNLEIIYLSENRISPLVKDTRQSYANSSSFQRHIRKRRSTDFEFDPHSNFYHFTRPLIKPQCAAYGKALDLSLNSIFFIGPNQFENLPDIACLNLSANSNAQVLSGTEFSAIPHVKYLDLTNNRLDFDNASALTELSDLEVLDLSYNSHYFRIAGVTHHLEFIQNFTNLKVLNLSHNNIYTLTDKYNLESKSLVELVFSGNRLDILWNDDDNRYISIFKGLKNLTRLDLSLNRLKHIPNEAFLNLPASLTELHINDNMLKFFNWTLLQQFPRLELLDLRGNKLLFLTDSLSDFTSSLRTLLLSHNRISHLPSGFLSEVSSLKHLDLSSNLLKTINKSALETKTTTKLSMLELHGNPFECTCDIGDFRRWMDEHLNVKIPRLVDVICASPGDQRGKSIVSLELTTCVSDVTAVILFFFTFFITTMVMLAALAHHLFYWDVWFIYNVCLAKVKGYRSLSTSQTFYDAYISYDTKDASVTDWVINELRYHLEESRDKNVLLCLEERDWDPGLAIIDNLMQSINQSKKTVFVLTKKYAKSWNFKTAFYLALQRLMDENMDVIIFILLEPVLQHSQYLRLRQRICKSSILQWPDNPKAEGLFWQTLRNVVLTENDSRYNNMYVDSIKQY
Procedure: as §1, §2

human TLR9 = biological target: T3, human TLR9 (Homo sapiens, UniProt Q9NR96); experiment: TLR9 inhibition reporter assay (HEK-Blue SEAP); conditions: HEK-Blue cells overexpressing human TLR9, stimulated with ODN2006 5 nM, 22 hour incubation
T3 construct: host or cells: HEK-Blue cells
T3 sequence (Q9NR96 26-1032): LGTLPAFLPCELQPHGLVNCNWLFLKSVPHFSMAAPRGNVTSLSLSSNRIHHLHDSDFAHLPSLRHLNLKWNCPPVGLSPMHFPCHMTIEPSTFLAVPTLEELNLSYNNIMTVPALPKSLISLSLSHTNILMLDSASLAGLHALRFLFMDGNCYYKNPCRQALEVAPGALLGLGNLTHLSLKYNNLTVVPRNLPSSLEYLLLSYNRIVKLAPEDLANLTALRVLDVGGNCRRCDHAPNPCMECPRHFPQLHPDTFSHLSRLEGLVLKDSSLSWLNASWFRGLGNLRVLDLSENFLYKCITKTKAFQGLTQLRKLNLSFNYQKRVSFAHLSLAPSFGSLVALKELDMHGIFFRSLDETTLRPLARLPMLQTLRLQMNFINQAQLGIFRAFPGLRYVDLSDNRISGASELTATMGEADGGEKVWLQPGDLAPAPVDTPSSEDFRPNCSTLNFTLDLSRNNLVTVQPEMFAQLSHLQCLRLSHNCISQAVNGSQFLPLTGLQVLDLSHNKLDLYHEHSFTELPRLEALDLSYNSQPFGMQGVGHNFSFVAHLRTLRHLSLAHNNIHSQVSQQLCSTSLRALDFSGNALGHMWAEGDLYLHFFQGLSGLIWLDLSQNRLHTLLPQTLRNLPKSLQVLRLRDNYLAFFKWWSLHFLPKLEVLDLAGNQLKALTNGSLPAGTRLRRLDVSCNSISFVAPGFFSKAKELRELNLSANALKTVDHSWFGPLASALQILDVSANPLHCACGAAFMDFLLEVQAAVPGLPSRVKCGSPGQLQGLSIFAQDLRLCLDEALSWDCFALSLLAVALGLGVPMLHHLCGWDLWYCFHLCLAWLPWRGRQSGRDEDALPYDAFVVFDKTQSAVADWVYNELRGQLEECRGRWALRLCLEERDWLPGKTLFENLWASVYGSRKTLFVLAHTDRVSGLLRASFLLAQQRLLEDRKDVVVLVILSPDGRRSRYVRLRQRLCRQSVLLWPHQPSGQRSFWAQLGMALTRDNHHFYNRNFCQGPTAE
Procedure: as §1, §2

| Structure (SMILES) | IC50 (human TLR7) | IC50 (human TLR8) | IC50 (human TLR9) |
| --- | --- | --- | --- |
| CCc1cc2c(OC3CCC(N(C)C)CC3)n[nH]c2cc1-c1cc(C)c2ncnn2c1 (single isomer, unassigned) [Example 192, 4-((5-ethyl-6-(8-methyl-[1,2,4]triazolo[1,5-a]pyridin-6-yl)-1H-indazol-3-yl)oxy)-N,N-dimethylcyclohexan-1-amine] | 0.7 nM | 0.1 nM | 7890 nM |
| CCOC1CN(C2CCC(c3n[nH]c4cc(-c5cc(C)c6ncnn6c5)c(C(C)C)cc34)CC2)C1 (single isomer, unassigned) [Example 150, 6-(3-(4-(3-ethoxyazetidin-1-yl)cyclohexyl)-5-isopropyl-1H-indazol-6-yl)-8-methyl-[1,2,4]triazolo[1,5-a]pyridine] | 1.7 nM | 0.1 nM | 6910 nM |
| Cc1cc(-c2cc3[nH]nc(C4CCC(N5CC(OC(C)C)C5)CC4)c3cc2C(C)C)cn2ncnc12 (single isomer, unassigned) [Example 161, 6-(3-(4-(3-isopropoxyazetidin-1-yl)cyclohexyl)-5-isopropyl-1H-indazol-6-yl)-8-methyl-[1,2,4]triazolo[1,5-a]pyridine] | 6.4 nM | 0.5 nM | 8400 nM |
| Cc1cc(-c2cc3[nH]nc(C4CCC(N5CC6(CCOC6)C5)CC4)c3cc2C(C)C)cn2ncnc12 (stereo not drawn) [Example 157, 2-(4-(5-isopropyl-6-(8-methyl-[1,2,4]triazolo[1,5-a]pyridin-6-yl)-1H-indazol-3-yl)cyclohexyl)-6-oxa-2-azaspiro[3.4]octane] | 0.5 nM | 0.4 nM | 6730 nM |
| Cc1cc2c(C3CCNCC3)n[nH]c2cc1-c1cc(-c2cncnc2)c2ncnn2c1 [Example 85, 6-(5-methyl-3-(piperidin-4-yl)-1H-indazol-6-yl)-8-(pyrimidin-5-yl)-[1,2,4]triazolo[1,5-a]pyridine] | 33 nM | 1.5 nM | 3940 nM |
| Cc1cc(-c2cc3[nH]nc(C4CCC(N5CCC(S(C)(=O)=O)C5)CC4)c3cc2C(C)C)cn2ncnc12 (single isomer, unassigned) [Example 212, 6-(5-isopropyl-3-(4-(3-(methylsulfonyl)pyrrolidin-1-yl)cyclohexyl)-1H-indazol-6-yl)-8-methyl-[1,2,4]triazolo[1,5-a]pyridine] | 8.2 nM | 0.36 nM | 24100 nM |
| Cc1cc(-c2cc(C)c3ncnn3c2)cc2[nH]nc(OC3CCN(CC(=O)N(C)C)CC3)c12 [Example 176, N,N-dimethyl-2-(4-((4-methyl-6-(8-methyl-[1,2,4]triazolo[1,5-a]pyridin-6-yl)-1H-indazol-3-yl)oxy)piperidin-1-yl)acetamide] | 12.5 nM | 3.8 nM | 4920 nM |
| Cc1cc2c(C3CCC(N(C)C4COC4)CC3)n[nH]c2cc1-c1cc(C)c2ncnn2c1 (single isomer, unassigned) [Example 33, N-methyl-N-(4-(5-methyl-6-(8-methyl-[1,2,4]triazolo[1,5-a]pyridin-6-yl)-1H-indazol-3-yl)cyclohexyl)oxetan-3-amine] | 96.7 nM | 3 nM | 9010 nM |
| Cc1cc2c(C3CCN(C4CCOCC4)CC3)n[nH]c2cc1-c1cc(C)c2ncnn2c1 [Example 21, 8-methyl-6-(5-methyl-3-(1-(tetrahydro-2H-pyran-4-yl)piperidin-4-yl)-1H-indazol-6-yl)-[1,2,4]triazolo[1,5-a]pyridine] | 26.2 nM | 0.7 nM | 4540 nM |
| CCc1cc2c(C3CCC(NC4CC4)CC3)n[nH]c2cc1-c1cc(C)c2ncnn2c1 (single isomer, unassigned) [Example 98, N-cyclopropyl-4-(5-ethyl-6-(8-methyl-[1,2,4]triazolo[1,5-a]pyridin-6-yl)-1H-indazol-3-yl)cyclohexan-1-amine] | 2.5 nM | 0.2 nM | 6570 nM |
| CCc1cc(-c2cc(C)c3ncnn3c2)cc2[nH]nc(C3CCN(CC(=O)N(C)C)CC3)c12 [Example 8, 2-(4-(4-ethyl-6-(8-methyl-[1,2,4]triazolo[1,5-a]pyridin-6-yl)-1H-indazol-3-yl)piperidin-1-yl)-N,N-dimethylacetamide] | 4 nM | 4.5 nM | 6070 nM |
